# Columns and labels:
# Type in all cases: in vivo
# Kochia (Kochia scoparia) [1] = test: Test A preemergence; conditions: Bassia scoparia, pre-emergence, 240 h; for pest or weed control at 125 g/ha: 125 g ai/ha, preemergence, 0 to 100 scale where 0 is no effect and 100 is complete control, read-out: Kochia plant response rating; for pest or weed control at 500 g/ha: 500 g ai/ha, Preemergence, visual injury vs untreated controls after approximately 10 d, read-out: Kochia plant response rating (0 to 100 scale where 0 is no effect and 100 is complete control)
# In short: (§1)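 Seeds sprayed preemergence with a directed soil spray, or plants at 2 to 10 cm height and one- to two-leaf stage sprayed postemergence, with test chemicals in a non-phytotoxic solvent mixture containing surfactant, in loam soil–sand blend. Injury rated visually against untreated controls after about 10 d in greenhouse, 0 (no effect) to 100 (complete control).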
# [2] = test system: giant foxtail (Setaria faberii); test: Test A preemergence; conditions: Setaria faberi, pre-emergence, 240 h; for pest or weed control at 125 g/ha: 125 g ai/ha, preemergence, 0 to 100 scale where 0 is no effect and 100 is complete control, read-out: Foxtail, Giant plant response rating; for pest or weed control at 500 g/ha: 500 g ai/ha, Preemergence, visual injury vs untreated controls after approximately 10 d, read-out: Foxtail, Giant plant response rating (0 to 100 scale where 0 is no effect and 100 is complete control)
# In short: as §1
# [3] = test system: barnyardgrass (Echinochloa crus-galli); test: Test A preemergence; conditions: Echinochloa crus-galli, pre-emergence, 240 h; for pest or weed control at 125 g/ha: 125 g ai/ha, preemergence, 0 to 100 scale where 0 is no effect and 100 is complete control, read-out: Barnyardgrass plant response rating; for pest or weed control at 500 g/ha: 500 g ai/ha, Preemergence, visual injury vs untreated controls after approximately 10 d, read-out: Barnyardgrass plant response rating (0 to 100 scale where 0 is no effect and 100 is complete control)
# In short: as §1
# [4] = test system: ragweed (common ragweed, Ambrosia elatior); test: Test A preemergence; conditions: Ambrosia artemisiifolia, pre-emergence, 240 h; for pest or weed control at 125 g/ha: 125 g ai/ha, preemergence, 0 to 100 scale where 0 is no effect and 100 is complete control, read-out: Ragweed plant response rating; for pest or weed control at 500 g/ha: 500 g ai/ha, Preemergence, visual injury vs untreated controls after approximately 10 d, read-out: Ragweed plant response rating (0 to 100 scale where 0 is no effect and 100 is complete control)
# In short: as §1
# [5] = test system: pigweed (Amaranthus retroflexus); test: Test A preemergence; conditions: Amaranthus retroflexus, pre-emergence, 240 h; for pest or weed control at 125 g/ha: 125 g ai/ha, preemergence, 0 to 100 scale where 0 is no effect and 100 is complete control, read-out: Pigweed plant response rating; for pest or weed control at 500 g/ha: 500 g ai/ha, Preemergence, visual injury vs untreated controls after approximately 10 d, read-out: Pigweed plant response rating (0 to 100 scale where 0 is no effect and 100 is complete control)
# [6] = test system: ryegrass, Italian (Italian ryegrass, Lolium multiflorum); test: Test A preemergence; conditions: Lolium multiflorum, pre-emergence, 240 h; for pest or weed control at 125 g/ha: 125 g ai/ha, preemergence, 0 to 100 scale where 0 is no effect and 100 is complete control, read-out: Ryegrass, Italian plant response rating; for pest or weed control at 500 g/ha: 500 g ai/ha, Preemergence, visual injury vs untreated controls after approximately 10 d, read-out: Ryegrass, Italian plant response rating (0 to 100 scale where 0 is no effect and 100 is complete control)
# In short: as §1
# Kochia (Kochia scoparia) [7] = test: Test A postemergence; conditions: Bassia scoparia, post-emergence, 240 h, 125 g ai/ha, postemergence, visual injury rating after approximately 10 d; read-out: Kochia plant response rating (0 to 100 scale, 0 no effect, 100 complete control)
# In short: as §1
# corn (Zea mays) = test: Test A postemergence; conditions: Zea mays, post-emergence, 240 h, 125 g ai/ha, postemergence, visual injury rating after approximately 10 d; read-out: Corn plant response rating (0 to 100 scale, 0 no effect, 100 complete control)
# In short: as §1
# [8] = test system: Galium (catchweed bedstraw, Galium aparine); test: Test A postemergence; conditions: Galium, post-emergence, 240 h, 125 g ai/ha, postemergence, visual injury rating after approximately 10 d; read-out: Galium plant response rating (0 to 100 scale, 0 no effect, 100 complete control)
# In short: as §1
# [9] = test system: wheat (Triticum aestivum); test: Test A postemergence; conditions: Triticum aestivum, post-emergence, 240 h, 125 g ai/ha, postemergence, visual injury rating after approximately 10 d; read-out: Wheat plant response rating (0 to 100 scale, 0 no effect, 100 complete control)
# In short: as §1
# [10] = test system: barnyardgrass (Echinochloa crus-galli); test: Test A postemergence; conditions: Echinochloa crus-galli, post-emergence, 240 h, 125 g ai/ha, postemergence, visual injury rating after approximately 10 d; read-out: Barnyardgrass plant response rating (0 to 100 scale, 0 no effect, 100 complete control)
# In short: as §1
# [11] = test system: ragweed (common ragweed, Ambrosia elatior); test: Test A postemergence; conditions: Ambrosia artemisiifolia, post-emergence, 240 h, 125 g ai/ha, postemergence, visual injury rating after approximately 10 d; read-out: Ragweed plant response rating (0 to 100 scale, 0 no effect, 100 complete control)
# In short: as §1
# [12] = test system: pigweed (Amaranthus retroflexus); test: Test A postemergence; conditions: Amaranthus retroflexus, post-emergence, 240 h, 125 g ai/ha, postemergence, visual injury rating after approximately 10 d; read-out: Pigweed plant response rating (0 to 100 scale, 0 no effect, 100 complete control)
# In short: as §1
# [13] = test system: ryegrass, Italian (Italian ryegrass, Lolium multiflorum); test: Test A postemergence; conditions: Lolium multiflorum, post-emergence, 240 h, 125 g ai/ha, postemergence, visual injury rating after approximately 10 d; read-out: Ryegrass, Italian plant response rating (0 to 100 scale, 0 no effect, 100 complete control)
# In short: as §1
structure (smiles),measurement,setting,value
O=C1NC[C@H](c2cc(F)c(C(F)(F)F)c(F)c2)[C@H]1C(=O)Nc1ccccc1F [Compound 837],pest or weed control at 125 g/ha,Kochia (Kochia scoparia) [1],90%
same,pest or weed control at 500 g/ha,Kochia (Kochia scoparia) [1],90%
same,pest or weed control at 125 g/ha,[2],90%
same,pest or weed control at 500 g/ha,[2],90%
same,pest or weed control at 125 g/ha,[3],90%
same,pest or weed control at 500 g/ha,[3],90%
same,pest or weed control at 125 g/ha,[4],70%
same,pest or weed control at 500 g/ha,[4],70%
same,pest or weed control at 125 g/ha,[5],20%
same,pest or weed control at 500 g/ha,[5],80%
same,pest or weed control at 125 g/ha,[6],50%
same,pest or weed control at 500 g/ha,[6],70%
same,pest or weed control at 125 g/ha,Kochia (Kochia scoparia) [7],20%
same,plant injury at 125 g/ha,corn (Zea mays),60%
same,pest or weed control at 125 g/ha,[8],50%
same,plant injury at 125 g/ha,[9],0%
same,pest or weed control at 125 g/ha,[10],90%
same,pest or weed control at 125 g/ha,[11],10%
same,pest or weed control at 125 g/ha,[12],30%
same,pest or weed control at 125 g/ha,[13],50%
O=C1NC[C@H](c2cc(F)c(C(F)(F)F)c(F)c2)[C@H]1C(=O)Nc1cccc(F)c1F [Compound 838],pest or weed control at 125 g/ha,Kochia (Kochia scoparia) [1],70%
same,pest or weed control at 500 g/ha,Kochia (Kochia scoparia) [1],80%
same,pest or weed control at 125 g/ha,[2],90%
same,pest or weed control at 500 g/ha,[2],90%
same,pest or weed control at 125 g/ha,[3],90%
same,pest or weed control at 500 g/ha,[3],90%
same,pest or weed control at 125 g/ha,[4],40%
same,pest or weed control at 500 g/ha,[4],60%
same,pest or weed control at 125 g/ha,[5],80%
same,pest or weed control at 500 g/ha,[5],90%
same,pest or weed control at 125 g/ha,[6],20%
same,pest or weed control at 500 g/ha,[6],60%
same,pest or weed control at 125 g/ha,Kochia (Kochia scoparia) [7],70%
same,plant injury at 125 g/ha,corn (Zea mays),70%
same,pest or weed control at 125 g/ha,[8],50%
same,plant injury at 125 g/ha,[9],30%
same,pest or weed control at 125 g/ha,[10],90%
same,pest or weed control at 125 g/ha,[11],40%
same,pest or weed control at 125 g/ha,[12],80%
same,pest or weed control at 125 g/ha,[13],30%

# Source: US12077503B2, “Substituted cyclic amides and their use as herbicides” (FMC CORPORATION, priority 2015, dated 2024)
